From PubChem BioAssay (NCI)
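Method: 48-hour compound exposure of cells in 96-well plates, five concentrations, linear interpolation of endpoints. At the TGI there is no net growth.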

Legend:
Assay in all cases: NCI-60 cell line screen, 48 h
786-0 renal = system: 786-0 renal
A549 NSCLC = system: A549 NSCLC
BT-549 breast = system: BT-549 breast
HCT-15 colon = system: HCT-15 colon
MDA-MB-231 breast = system: MDA-MB-231 breast
MDA-N = system: MDA-N
NCI-H23 lung = system: NCI-H23 lung
RXF 393 renal = system: RXF 393 renal
SF-268 CNS = system: SF-268 CNS
SK-MEL-2 melanoma = system: SK-MEL-2 melanoma
SK-MEL-5 melanoma = system: SK-MEL-5 melanoma
UACC-257 melanoma = system: UACC-257 melanoma

| Compound | TGI (786-0 renal) [µM] | TGI (A549 NSCLC) [µM] | TGI (BT-549 breast) [µM] | TGI (HCT-15 colon) [µM] | TGI (MDA-MB-231 breast) [µM] | TGI (MDA-N) [µM] | TGI (NCI-H23 lung) [µM] | TGI (RXF 393 renal) [µM] | TGI (SF-268 CNS) [µM] | TGI (SK-MEL-2 melanoma) [µM] | TGI (SK-MEL-5 melanoma) [µM] | TGI (UACC-257 melanoma) [µM] |
| --- | --- | --- | --- | --- | --- | --- | --- | --- | --- | --- | --- | --- |
| COC(=O)C1Cc2c(C)cccc2C1=O (centres undefined) | > 100 | > 100 | > 100 | > 100 | > 100 | > 100 | > 100 | > 100 | > 100 | > 100 | > 100 | > 100 |
| Oc1c(OCc2nnc(CCCCCCCCc3nnc(COc4ccc5ccccc5c4O)n3Nc3ccccc3)n2Nc2ccccc2)ccc2ccccc12 | 27.4 | 27.8 | 25.7 | 30 | 23.4 | 12.8 | 35.2 | 30.9 | 27 | 27.6 | 3.27 | 25.7 |
| CCOC(=O)C1(Cc2ccc(C)cc2)Cc2ccc(C)cc2C1=O (centres undefined) | > 100 | > 100 | 80.8 | > 100 | > 100 | 6.42 | > 94.7 | 29.5 | > 100 | 32.9 | 20.8 | 98.2 |
| CCC1(O)C=CC(=O)C=C1 | 39.2 | > 100 | > 100 | 55.5 | 36.6 | > 100 | 69.3 | 38.2 | 52 | > 100 | > 100 | > 52.5 |
| O=C(CCSC(CC(=O)c1ccc(Cl)cc1)c1ccc(Cl)cc1)Nc1ccc(Cl)cc1 (centres undefined) | 27.6 | 40 | 27.1 | 24.2 | 33.4 | 26 | 30.4 | 28.2 | 29 | 28.9 | 29.4 | 29.6 |
| COC(=O)Cc1c([C@@H]2Nc3ccccc3[C@H]2CC(=O)OC)[nH]c2ccccc12 | > 100 | > 100 | 75 | > 100 | 88.9 | > 100 | > 100 | > 100 | > 100 | 34.8 | 21 | 81.6 |
| CN(NC(=O)c1ccco1)C1=NCCCCN1 | > 100 | > 100 | > 100 | > 100 | > 100 | > 100 | > 100 | > 100 | > 100 | > 100 | > 100 | > 100 |
| COc1c2nc(CCl)n(C)c(=O)c2c(OC)c2c(=O)n(C)c(CCl)nc12 | 3.29 | 13.3 | 1.96 | 2.86 | 2.88 | 3.31 | 3.4 | 4.14 | 4.52 |  | 4.96 | 5.24 |
| C1=C2SSC3=CC=C(SSc4ccc(s4)SSC4=CC=C(SSC(=C1)S2)S4)S3 | > 100 | > 100 | > 100 | > 100 | > 100 | > 100 | > 100 | > 100 | > 100 | > 100 | > 100 | > 100 |
| COc1cc2c(cc1OC)C(=O)N(c1ccc(O)cc1)C2 | > 100 | > 100 | > 100 | > 100 | > 100 | > 100 | > 100 | > 100 | > 100 | > 100 | > 100 | > 100 |
| COc1ccc2nc3ccc(OC)cc3c(S(=O)Cc3ccc([N+](=O)[O-])cc3)c2c1 (centres undefined) | 4.26 | > 58 | 33.4 | 10.5 | 29.9 | 29.7 | 25.1 | 28.6 | 47.5 | 34.9 | 31.8 | 11.4 |
| CCOC(=O)NNC(=O)NCCNC(=O)NNC(=O)OCC | > 100 | > 100 | > 100 | > 100 | > 100 | > 100 | > 100 | > 100 | > 100 | > 100 | > 100 | > 100 |
| NCCC1(N)CCNCC1 | > 100 | > 100 | > 100 | > 100 | > 100 | > 100 | > 100 | > 100 | > 100 | > 100 | > 100 | > 100 |
| CO/C(=N\N=C(/C)C(F)(F)F)c1ccncc1 |  |  | > 100 | > 100 | > 100 | > 100 | > 100 | > 100 |  | > 100 | > 100 |  |
| O=S(=O)(O)c1cc(Cl)c(O)c2ncc(Cl)cc12 | > 100 | > 100 | > 100 | > 100 | > 100 | > 100 | > 100 | > 100 |  | > 100 | > 100 | > 100 |
| CCOC(=O)c1cc2cc(Cc3ccc4[nH]c(C(=O)OCC)cc4c3)ccc2[nH]1 | 13 |  | 26.8 | > 100 | 37.9 | > 100 | 37.9 | 29.4 | 38.5 | 81.1 |  | > 100 |
